# Laboratory results as given in patent publication US5830863A, “Neurokinin A antagonists” (priority 1996, dated 1998).
# Read-outs that look alike come from different tables or passages of the source. Residues, ends and D or L forms follow the SMILES beside them.
# How the values were obtained:
# [1] = biological target: T1, neurokinin A (NKA) receptor (NK-2) (Mesocricetus auratus, UniProt P51144); assay: displacement of I125 labeled NKA from hamster urinary bladder membranes; type: binding
# T1 construct: displace I125 labeled NKA from hamster urinary bladder; from tissue; host or cells: hamster urinary bladder (membranes in A1, chopped tissue in A4)
# T1 sequence (P51144 1-384): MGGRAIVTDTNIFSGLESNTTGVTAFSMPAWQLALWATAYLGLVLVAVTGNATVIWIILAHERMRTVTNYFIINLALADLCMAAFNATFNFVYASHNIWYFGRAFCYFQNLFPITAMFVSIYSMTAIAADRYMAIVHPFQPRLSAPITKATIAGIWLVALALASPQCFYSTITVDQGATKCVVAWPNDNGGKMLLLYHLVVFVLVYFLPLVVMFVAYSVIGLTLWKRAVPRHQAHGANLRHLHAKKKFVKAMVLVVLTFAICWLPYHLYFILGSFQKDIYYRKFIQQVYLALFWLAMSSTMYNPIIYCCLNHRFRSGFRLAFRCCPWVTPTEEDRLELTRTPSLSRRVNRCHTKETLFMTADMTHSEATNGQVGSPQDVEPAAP
# Text: The abscissa (x-axis) logarithmically indicates the concentration in nanomoles of agonist of antagonist of the neurokinin A (NKA) receptor. The ordinate (Y-axis) indicates the observed specific binding for each tested agonist or antagonist measured as a percentage of maximum specific binding.
# Agonists tested were NKA and fragments of NKA consisting of the third to tenth (NKA(3-10)) amino acids and the fourth to tenth (NKA(4-10)) amino acids. Values are MEAN±S.E.M. of 6-12 experiments. IC50 values estimated graphically from 50% inhibition point.
# Urinary bladders from several hamsters were pooled, minced, and homogenized in 50 mM TRIS-HCl (pH 7.4) containing 120 mM NaCl and 5 mM KCl at 4° C. and centrifuged at 48,000×g for 15 minutes. The pellet was resuspended for 30 minutes in 50 mM TRIS-HCl (pH 7.4) containing 10 mM EDTA and 300 mM KCl at 4° C. The suspension was centrifuged as above and the pellet was washed two times in plain 50 mM TRIS-HCl (pH 7.4) and centrifuged similarly. The tissue was then resuspended in incubation buffer and an aliquot (approximately 3-5 mg tissue) was added to each assay tube to commence the assay. The assay tubes contained incubation buffer consisting of 50 mM TRIS-HCl (pH 7.4), 0.02% BSA, 40 μg/ml bacitracin, 4 μg/ml chymostatin, 4 μg/ml leupeptin, 2 mM MnCl2, 0.1 nM ^125 iodohistidyl^1 -neurokinin A (Amersham Corp.), and concentrations of the title compounds or standards ranging from 0.03 nM to 100 μM. The assay was allowed to proceed to equilibrium for 120 min at room temperature. After this time, the contents of each tube was rapidly filtered over Whatman GF/B filters presoaked in 0.5% BSA and the filters were rapidly washed two times with ice-cold plain 50 mM TRIS-HCl (pH 7.4). Filter-bound radioactivity was quantitated in a gamma counter. Specific binding (maximum) was defined as the difference between binding in the presence and absence of 1 μM unlabeled neurokinin A. Competition of iodinated neurokinin A binding by test compounds or standards was expressed as a percentage of this maximum competition.
# (§1) Values given indicate the concentration in nanomoles of antagonist to reach the IC50 of the neurokinin A (NKA) receptor. SKLKB82#3 represents a cloned NK-2 receptor cell line; the sample is prepared from the scraped cell pellet for assay as earlier described for the hamster urinary bladder preparations. NK-1 represents a substance P receptor preparation from rat salivary gland; receptors are prepared as earlier described for the hamster urinary bladder preparations. Blank spaces indicate compound has not been tested in that particular assay.
# [2] = biological target: T2, cloned NK-2 receptor (SKLKB82#3 cell line) (Bos taurus, UniProt P05363); assay: I125 NKA binding to SKLKB82#3 cloned NK-2 receptor cell line
# T2 construct: expressed in transfected cells; host or cells: SKLKB82#3 cell line (scraped cell pellet)
# T2 sequence (P05363 1-384): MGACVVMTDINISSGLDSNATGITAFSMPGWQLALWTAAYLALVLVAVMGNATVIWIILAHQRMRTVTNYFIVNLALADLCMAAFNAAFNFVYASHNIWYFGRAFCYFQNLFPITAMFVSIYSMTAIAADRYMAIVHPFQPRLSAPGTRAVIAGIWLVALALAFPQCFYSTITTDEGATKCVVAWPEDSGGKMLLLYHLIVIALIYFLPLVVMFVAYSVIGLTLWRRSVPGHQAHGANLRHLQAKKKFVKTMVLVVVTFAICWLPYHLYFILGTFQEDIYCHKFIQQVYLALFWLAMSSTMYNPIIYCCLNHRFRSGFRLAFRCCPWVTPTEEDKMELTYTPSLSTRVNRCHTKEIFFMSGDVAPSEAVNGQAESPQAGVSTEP
# Procedure: as §1, with “preparations.” for “preparations. Blank spaces indicate compound has not been tested in that particular assay.”
# [3] = biological target: T3, NK-1 (substance P receptor) (Rattus norvegicus, UniProt P14600); assay: NK-1 substance P receptor preparation from rat salivary gland, binding
# T3 construct: substance P receptor preparation from rat salivary gland; from tissue; host or cells: rat salivary gland
# T3 sequence (P14600 whole entry): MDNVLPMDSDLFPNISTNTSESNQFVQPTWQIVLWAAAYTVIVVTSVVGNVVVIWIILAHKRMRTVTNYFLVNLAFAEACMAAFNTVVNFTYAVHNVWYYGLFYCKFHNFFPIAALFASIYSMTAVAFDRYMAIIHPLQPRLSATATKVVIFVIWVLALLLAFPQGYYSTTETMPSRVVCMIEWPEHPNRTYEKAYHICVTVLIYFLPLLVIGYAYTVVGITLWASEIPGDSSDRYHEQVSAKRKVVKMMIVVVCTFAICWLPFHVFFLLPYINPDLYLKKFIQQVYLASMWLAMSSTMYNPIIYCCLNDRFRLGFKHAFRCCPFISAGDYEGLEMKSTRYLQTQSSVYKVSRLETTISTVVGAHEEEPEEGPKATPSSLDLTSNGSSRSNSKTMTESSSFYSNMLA
# Procedure: as §1, with “preparations.” for “preparations. Blank spaces indicate compound has not been tested in that particular assay.”
# [4] = cloned NK-2 receptor cell line, scraped cell pellet, read-out: SKLKB82#3 IC50
IC50 [1] [nM],"IC50 [2, 4] [nM]",IC50 [3] [nM],Compound,IC50 [2] [nM]
103 ± 13,–,–,"CCCN(C[C@H](CC(C)C)NC(=O)CNC(=O)[C@@H](NC(=O)[C@H](Cc1ccccc1)NC(=O)[C@H](CO)NC(=O)[C@@H](N)CC(=O)O)C(C)C)[C@@H](CC(C)C)C(N)=O [MDL 102,863, Asp-Ser-Phe-Val-Gly-Leu(.PSI.(CH2 N(CH2)2 CH3))Leu-NH2] (HELM PEPTIDE1{D.S.F.V.G.[CCCN(C[C@H](CC(C)C)N[*:1])[C@@H](CC(C)C)C(N)=O]}$$$$V2.0)",–
257 ± 30,4730 ± 393,–,"CCN(C[C@H](CC(C)C)NC(=O)CNC(=O)[C@@H](NC(=O)[C@H](Cc1ccccc1)NC(=O)[C@H](CO)NC(=O)[C@@H](N)CC(=O)O)C(C)C)[C@@H](CC(C)C)C(N)=O [MDL 29,716, Asp-Ser-Phe-Val-Gly-Leu(.PSI.(CH2 NCH2 CH3))Leu-NH2] (HELM PEPTIDE1{D.S.F.V.G.[CCN(C[C@H](CC(C)C)N[*:1])[C@@H](CC(C)C)C(N)=O]}$$$$V2.0)",–
19 ± 3,–,–,"CC(C)C[C@@H](CN[C@@H](CC(C)C)C(N)=O)NC(=O)CCNC(=O)[C@@H](NC(=O)[C@H](Cc1ccccc1)NC(=O)[C@H](CO)NC(=O)[C@@H](N)CC(=O)O)C(C)C [MDL 102,500, Asp-Ser-Phe-Val-β-Ala-Leu(.PSI.(CH2 NH))Leu-NH2] (HELM PEPTIDE1{D.S.F.V.[bAla].[CC(C)C[C@@H](CN[C@@H](CC(C)C)C(N)=O)N[*:1]]}$$$$V2.0)",–
> 10000,–,–,"CC(C)C[C@H](NC(=O)[C@H](CC(C)C)N(C)CCNC(=O)[C@@H](NC(=O)[C@H](Cc1ccccc1)NC(=O)[C@H](CO)NC(=O)[C@@H](N)CC(=O)O)C(C)C)C(N)=O [MDL 102,369, Asp--Ser--Phe--Val--Gly[.psi.CH2 NCH3)]Leu--Leu--NH2] (HELM PEPTIDE1{D.S.F.V.[CC(C)C[C@@H](C(=O)[*:2])N(C)CCN[*:1]].L.[am]}$$$$V2.0)",–
> 5000,–,–,"CC(C)C[C@H](NC(=O)[C@H](CC(C)C)NC(=O)CN(C)C[C@@H](NC(=O)[C@H](Cc1ccccc1)NC(=O)[C@H](CO)NC(=O)[C@@H](N)CC(=O)O)C(C)C)C(N)=O [MDL 29,712, Asp--Ser--Phe--Val[.psi.(CH2 NCH3)]Gly--Leu--Leu--NH2] (HELM PEPTIDE1{D.S.F.[CC(C)[C@@H](CN(C)CC(=O)[*:2])N[*:1]].L.L.[am]}$$$$V2.0)",–

# Further lines, the molecule ahead of its results:
Compound,IC50 [1] [nM],"IC50 [2, 4] [nM]",IC50 [3] [nM],IC50 [2] [nM]
"CC(C)C[C@@H](CO)NC[C@H](CC(C)C)NC(=O)CNC(=O)[C@@H](NC(=O)[C@H](Cc1ccccc1)NC(=O)[C@H](CO)NC(=O)[C@@H](N)CC(=O)O)C(C)C [MDL 102,678, Asp--Ser--Phe--Val--Gly--Leu[.psi.(CH2 NH)]Leu--CH2 OH] (HELM PEPTIDE1{D.S.F.V.G.[CC(C)C[C@@H](CO)NC[C@H](CC(C)C)N[*:1]]}$$$$V2.0)",> 10000,> 10000,–,–
"CSCC[C@H](NC[C@H](CC(C)C)NC(=O)CNC(=O)[C@@H](NC(=O)[C@H](Cc1ccccc1)NC(=O)[C@H](CO)NC(=O)[C@@H](N)CC(=O)O)C(C)C)C(N)=O [MDL 29,646, Asp--Ser--Phe--Val--Gly--Leu(.psi.(CH2 NH))Met--NH2] (HELM PEPTIDE1{D.S.F.V.G.[CSCC[C@H](NC[C@H](CC(C)C)N[*:1])C(N)=O]}$$$$V2.0)",50 ± 5,–,> 10000,–
"CC(C)C[C@H](NC(=O)[C@H](CC(C)C)NC(=O)CNC(=O)[C@H](C(C)C)N(C)C[C@H](Cc1ccccc1)NC(=O)[C@H](CO)NC(=O)[C@@H](N)CC(=O)O)C(N)=O [MDL 29,678, Asp--Ser--Phe[.psi.(CH2 NCH3)]Val--Gly--Leu--Leu--NH2] (HELM PEPTIDE1{D.S.[CC(C)[C@@H](C(=O)[*:2])N(C)C[C@H](Cc1ccccc1)N[*:1]].G.L.L.[am]}$$$$V2.0)",> 10000,–,–,–
"CC(C)C[C@H](NC(=O)[C@H](CC(C)C)NC(=O)CNC(=O)[C@@H](NC(=O)[C@H](Cc1ccccc1)NC(=O)[C@H](CO)NCCCC(=O)O)C(C)C)C(N)=O [MDL 101,905, Suc[.psi.(CH2 NH)]Ser--Phe--Val--Gly--Leu--Leu--NH2] (HELM PEPTIDE1{[O=C(O)CCCN[C@@H](CO)C(=O)[*:2]].F.V.G.L.L.[am]}$$$$V2.0)",2000,–,–,–
"CC(C)C[C@H](NC(=O)[C@H](CC(C)C)NC(=O)CNC[C@@H](NC(=O)[C@H](Cc1ccccc1)NC(=O)[C@H](CO)NC(=O)[C@@H](N)CC(=O)O)C(C)C)C(N)=O [MDL 29,882, Asp--Ser--Phe--Val[.psi.(CH2 NH)]Gly--Leu--Leu--NH2]",> 5000,–,> 100000,–
"CC(C)C[C@@H](CN[C@@H](Cc1ccccc1)C(N)=O)NC(=O)CNC(=O)[C@@H](NC(=O)[C@H](Cc1ccccc1)NC(=O)[C@H](CO)NC(=O)[C@@H](N)CC(=O)O)C(C)C [MDL 101,382, Asp--Ser--Phe--Val--Gly--Leu(.psi.(CH2 NH))Phe--NH2] (HELM PEPTIDE1{D.S.F.V.G.[CC(C)C[C@@H](CN[C@@H](Cc1ccccc1)C(N)=O)N[*:1]]}$$$$V2.0)",5,–,–,200
